Results from PubChem BioAssay AID1963444 (Molecular Pharmacology Branch, DTP, NCI, 2024).
Each block holds one compound with its values, some of them ahead of it.

Test system: HSSY-II complex spheroid growth, percent test/control
Assay: Anticancer human tumor HSSY-II cell line growth inhibition [Asc];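 further: spheroids exposed to drug for 7 days before reading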
Conditions: for IC50: curve of first compound; for viability, T/C: stronger effect = lower value
Description: Multicellular complex tumor spheroid response to apoptosis pathway targeting inhibitors Alrizomadlin, Pelcitoclax, and Dasminapant in combination with a variety of drugs and investigational agents in selected tumor cell lines
The MDM2 inhibitor alrizomadlin, the Bcl-2/Bcl-xL inhibitor pelcitoclax, and the IAPs inhibitor dasminapant were evaluated both individually and in combination with standard of care and investigational anticancer small molecules within a complex spheroid model of solid tumors. . Complex spheroids include a stromal component modeled by human endothelial cells (HUVEC) and fibroblasts modeled by human mesenchymal stem cells (MSCs). The concentration ranges selected for each drug and investigational agent were based upon clinically achievable concentrations if the clinical Cmax of the agent was known.
Compounds. The drugs and investigational agents: alrizomadlin (APG-115; NSC831270), pelcitoclax (APG-1252; NSC835773), dasminapant (APG-1387;NSC834197), TAK-243 (NSC785004), copanlisib (NSC809693), olaparib (NSC753686), talazoparib (NSC767125), cobimetinib (NSC 768068), eltanexor (KPT-8602, NSC 794443), abemaciclib (NSC 768073), sotorasib (NSC818433), adagrasib (NSC 831453), MRTX-1133 (NSC 836407), Iadademestat (ORY1001, NSC 806812), and RMC-4630 (NSC839698), were obtained from the NCI Developmental Therapeutics Program Chemical Repository. The FDA-approved anticancer drug set is available from the Developmental Therapeutics Program at https://dtp.cancer.gov/organization/dscb/obtaining/available plates.htm. […] The stock solutions were prepared in dimethyl sulfoxide (DMSO, Sigma-Aldrich, St. Louis, MO, cat. D2650) at 800-fold the tested concentration and stored at -70 degrees C prior to their use. All drugs and investigational agents were tested over a range starting from a high concentration at or near the clinical Cmax and decreasing in half-log increments. If the clinical Cmax for an agent had not been determined, the highest concentration tested was 10 microM.
The patient-derived cancer (PDC) cell lines include five colon adenocarcinomas: 186277-243-T-J2-PDC, 616215-338-R-J1-PDC, 439559-082-T-J2-PDC, 463943-066-T-J2-PDC, and 519858-162-T-J1-PDC; three pancreatic carcinomas: 323965-272-R-J2-PDC, 521955-158-R6-J3-PDC, and 521955-158-R2-J5-PDC; two uterine sarcomas: 327498-152-R-J2-PDC and 993429-296-R-J1-PDC; two rhabdomyosarcomas: 755483-174-R-J1-PDC and 772245-204-R-J1-PDC; two soft tissue sarcomas: 126254-015-R-J1-PDC and 494315-158-R-J1-PDC; two malignant fibrous histiocytomas: 317291-083-R-J1-PDC and 596521-263-R-J1-PDC; two breast carcinomas: 171881-019-R-J1-PDC and 885512-296-R-J2-PDC; and one ovarian carcinoma: 6556581-035-R-J-PDC were obtained from the NCI PDMR, (https://pdmr.cancer.gov). The established cell lines HSSY-2 synovial sarcoma (RRID:CVCL 8719), SYO-1 synovial sarcoma (RRID:CVCL_7146), MPNST malignant peripheral neural sheath tumor were obtained from the Sloan Kettering Institute. The following established cell lines were purchased from the American Type Culture Collection (ATCC, Manassas, VA), Sor the received from the NCI repository:, PANC-1 pancreatic carcinoma (CRL-1469, RRID:CVCL_0480), OVCAR-5 ovarian carcinoma (RRID:CVCL_1628), OVCAR-8 ovarian carcinoma (RRID:CVCL_1629), , MCF-7 breast carcinoma (CRL-12584, RRID:CVCL_0031), MDA-MB-231 breast carcinoma (CRL-12532, RRID:CVCL_0062), NCI-H1876 small cell lung carcinoma (CRL-5902, RRID:CVCL_1503), NCI-H510A small cell lung carcinoma (HTB-184, RRID:CVCL_1565), NCI-H1417 (CRL-5869, RRID:CVCL_1469), and NCI-H196 small cell lung carcinoma (CRL-5823, RRID:CVCL_1509). Dr. Peter Houghton (Greehey Children's Cancer Research Institute, University of Texas Health Science Center, San Antonio, TX) provided Rh-18 rhabdomyosarcoma (RRID:CVCL_1659). Pooled donor human umbilical vein endothelial cells (HUVEC, Lonza, cat. CC-2519) and human mesenchymal stem cells (hMSC, Lonza, cat. PT-2501) were purchased from Lonza (Walkersville, MD).
Cell Culture. […]

IC50 (second compound 0.03 µM): 7.3 µM
IC50 (second compound 0.0949 µM): 2.58 µM
IC50 (second compound 0.3 µM): < 0.0316 µM
IC50 (second compound 0.949 µM): < 0.0316 µM
IC50 (second compound 3 µM): < 0.0316 µM
SMILES: C=CC(=O)N1CCN(c2nc(=O)n(-c3c(C)ccnc3C(C)C)c3nc(-c4c(O)cccc4F)c(F)cc23)C(C)C1 (stereo not given) + CCN1C(C(=O)NC23CCC(C(=O)O)(CC2)CC3)C(c2cccc(Cl)c2F)C2(C(=O)Nc3cc(Cl)ccc32)C12CCCCC2
viability, T/C (second compound 0.03 µM, first compound 0.0316 µM): 87.5%
viability, T/C (second compound 0.03 µM, first compound 0.1 µM): 89.6%
viability, T/C (second compound 0.03 µM, first compound 0.316 µM): 89.5%
viability, T/C (second compound 0.03 µM, first compound 1 µM): 88%
viability, T/C (second compound 0.03 µM, first compound 3.16 µM): 84.7%
viability, T/C (second compound 0.03 µM, first compound 10 µM): 36.9%
viability, T/C (second compound 0.0949 µM, first compound 0.0316 µM): 60.3%
viability, T/C (second compound 0.0949 µM, first compound 0.1 µM): 63.9%
viability, T/C (second compound 0.0949 µM, first compound 0.316 µM): 65.2%
viability, T/C (second compound 0.0949 µM, first compound 1 µM): 62.7%
viability, T/C (second compound 0.0949 µM, first compound 3.16 µM): 47.3%
viability, T/C (second compound 0.0949 µM, first compound 10 µM): 18.4%
viability, T/C (second compound 0.3 µM, first compound 0.0316 µM): 25.3%
viability, T/C (second compound 0.3 µM, first compound 0.1 µM): 26.3%
viability, T/C (second compound 0.3 µM, first compound 0.316 µM): 26%
viability, T/C (second compound 0.3 µM, first compound 1 µM): 23.6%
viability, T/C (second compound 0.3 µM, first compound 3.16 µM): 20.9%
viability, T/C (second compound 0.3 µM, first compound 10 µM): 9.83%
viability, T/C (second compound 0.949 µM, first compound 0.0316 µM): 7.57%
viability, T/C (second compound 0.949 µM, first compound 0.1 µM): 7.88%
viability, T/C (second compound 0.949 µM, first compound 0.316 µM): 7.75%
viability, T/C (second compound 0.949 µM, first compound 1 µM): 6.93%
viability, T/C (second compound 0.949 µM, first compound 3.16 µM): 6.22%
viability, T/C (second compound 0.949 µM, first compound 10 µM): 6.06%
viability, T/C (second compound 3 µM, first compound 0.0316 µM): 2.1%
viability, T/C (second compound 3 µM, first compound 0.1 µM): 2.5%
viability, T/C (second compound 3 µM, first compound 0.316 µM): 2.3%
viability, T/C (second compound 3 µM, first compound 1 µM): 2.77%
viability, T/C (second compound 3 µM, first compound 3.16 µM): 2.35%
viability, T/C (second compound 3 µM, first compound 10 µM): 1.69%

IC50 (second compound 0.1 µM): > 10 µM
IC50 (second compound 0.316 µM): > 10 µM
IC50 (second compound 1 µM): > 10 µM
IC50 (second compound 3.16 µM): > 10 µM
IC50 (second compound 10 µM): > 10 µM
SMILES: C=CC(=O)N1CCN(c2nc(=O)n(-c3c(C)ccnc3C(C)C)c3nc(-c4c(O)cccc4F)c(F)cc23)C(C)C1 (stereo not given) + Cc1c(S(C)(=O)=O)c(-c2cc(F)cc(N3CCN(c4ccc(NS(=O)(=O)c5ccc(NC(CCN6CCC(C(=O)OCCCP(=O)(O)O)CC6)CSc6ccccc6)c(S(=O)(=O)C(F)(F)F)c5)cc4)CC3)c2)c(-c2ccc(Cl)cc2)n1C(C)C
viability, T/C (second compound 0.1 µM, first compound 0.0316 µM): 116%
viability, T/C (second compound 0.1 µM, first compound 0.1 µM): 121%
viability, T/C (second compound 0.1 µM, first compound 0.316 µM): 105%
viability, T/C (second compound 0.1 µM, first compound 1 µM): 111%
viability, T/C (second compound 0.1 µM, first compound 3.16 µM): 97.8%
viability, T/C (second compound 0.1 µM, first compound 10 µM): 67.7%
viability, T/C (second compound 0.316 µM, first compound 0.0316 µM): 114%
viability, T/C (second compound 0.316 µM, first compound 0.1 µM): 110%
viability, T/C (second compound 0.316 µM, first compound 0.316 µM): 105%
viability, T/C (second compound 0.316 µM, first compound 1 µM): 99.9%
viability, T/C (second compound 0.316 µM, first compound 3.16 µM): 114%
viability, T/C (second compound 0.316 µM, first compound 10 µM): 67.8%
viability, T/C (second compound 1 µM, first compound 0.0316 µM): 104%
viability, T/C (second compound 1 µM, first compound 0.1 µM): 111%
viability, T/C (second compound 1 µM, first compound 0.316 µM): 96.4%
viability, T/C (second compound 1 µM, first compound 1 µM): 100%
viability, T/C (second compound 1 µM, first compound 3.16 µM): 105%
viability, T/C (second compound 1 µM, first compound 10 µM): 51.3%
viability, T/C (second compound 3.16 µM, first compound 0.0316 µM): 109%
viability, T/C (second compound 3.16 µM, first compound 0.1 µM): 99.9%
viability, T/C (second compound 3.16 µM, first compound 0.316 µM): 101%
viability, T/C (second compound 3.16 µM, first compound 1 µM): 107%
viability, T/C (second compound 3.16 µM, first compound 3.16 µM): 103%
viability, T/C (second compound 3.16 µM, first compound 10 µM): 55%
viability, T/C (second compound 10 µM, first compound 0.0316 µM): 100%
viability, T/C (second compound 10 µM, first compound 0.1 µM): 99.2%
viability, T/C (second compound 10 µM, first compound 0.316 µM): 93.1%
viability, T/C (second compound 10 µM, first compound 1 µM): 110%
viability, T/C (second compound 10 µM, first compound 3.16 µM): 96.7%
viability, T/C (second compound 10 µM, first compound 10 µM): 61.3%
